Structures are written as SMILES. Values joined by “and” are separate entries in the source; they are usually repeats but may differ in a detail not shown here. Equal entries are not always repeated.

Assay type in all cases: cell-based
Test [1] relates to Pseudomonas aeruginosa. Nature of the test: antimicrobial susceptibility testing by microscopic observation, circularity of the bacteria. The method, then: (§1) In addition, when an examination is performed by using the bacteriological testing instrument 1, culture is performed by mixing a bacterial suspension prepared from a specimen with a culture fluid in the culture plate (for example, a culture plate which has 96 wells in total is used) 18. In order to perform the antimicrobial susceptibility testing, antimicrobial agents different from each other are set so as to be respectively contained in the culture fluids in each of the wells in particular concentrations. An order of the culturing is as follows. First, the bacterial suspension is introduced into the culture plate 18. Then, the bacterial suspension is in a state of being mixed with the culture fluid which is included in each of the wells, and the temperature controller 16 is set to a temperature of approximately 35° C. Furthermore, culture is performed by performing incubation such that the temperature of each of the wells in the culture plate 18 reaches the set temperature. Then, in the bacteriological testing instrument 1, while performing the incubation, the bacteria included in each of the wells can be monitored through the microscopic observation optical system. The microscopic observation may be performed for a set period of time from the start of the incubation till the end thereof by continuously monitoring the state of bacterial proliferation. In addition, the monitoring may be performed at the set time after setting appropriate time, and the monitoring result can be compared with the monitoring result when the incubation is started. In addition, similar to the bacteriological testing instrument in the related art, the turbidity of each of the wells may be measured through the turbidity measurement optical system while incubating the culture plate 18. The measured result may be compared with the monitored result of the microscopic observation optical system.
FIG. 22 is a view (graph) illustrating a result obtained by antimicrobial susceptibility testing with respect to meropenem of Pseudomonas aeruginosa. The graph acquires the circularity of the Pseudomonas aeruginosa in the image measured through the microscopic observation, and illustrates the time-dependent change thereof. The plurality of Pseudomonas aeruginosa are observed in one image, but the circularity of each of the Pseudomonas aeruginosa is acquired, and the value obtained by calculating an average value of the bacteria in the image is plotted. In addition, the circularity is a value calculated by 4π×(area)/(perimeter length)^2. When the bacteria have a completely circular shape, 4π×πr^2/(2πr) ^2=1 is satisfied, and when the bacteria is deviated from a completely circular shape, the perimeter length increases, and thus, the circularity value decreases.
In the graph, in a case where there is no the antimicrobial agent to be plotted by a “rhomboidal (diamond) shape”, the circularity of the Pseudomonas aeruginosa was hardly changed from the start of culture. […] In addition, when the concentration of meropenem of which the decrease in circularity is stopped is 0.5 μg/mL or greater, it is determined that the Pseudomonas aeruginosa becomes extinct. In a case where the bacteria are not extinct, the shape of the bacteria changes. […] The exemplary embodiment is an example in which the time-dependent change of the circularity of the bacteria is plotted instead of plotting the time-dependent change of the areas of the bacteria. However, in this manner, by plotting the time-dependent change of the feature values that become an index for indicating a degree of proliferation or growth of the bacteria in addition to the bacterial numbers or the areas of the bacteria, not only the minimum inhibitory concentration (MIC) of the bacteria but also the minimum bactericidal concentration (MBC) can be determined.

Test [2] has as its system Enterococcus faecalis (ATCC29212). Put plainly: antimicrobial susceptibility testing by microscopic observation, areas of the bacteria. The arrangement: key: Waiting is determined, and “W” is displayed; Growth is determined, and “G” is displayed; Inhibit is determined, and “I” is displayed. How it is done: as §1, with “The microscopic observation may be performed for a set period of time from the start of the incubation till the end thereof by continuously monitoring the state of bacterial proliferation. In addition, the monitoring may be performed at the set time after setting appropriate time, and the monitoring result can be compared with the monitoring result when the incubation is started.” left out
The processor determines whether the bacteria proliferate or the proliferation is interrupted under the corresponding culture condition, based on the microscopic image to which the above-described necessary treatments are performed. […] More specifically, based on the image after the treatment illustrated in FIGS. 4 to 6, for example, the areas of the bacteria are calculated, and it is determined whether or not the proliferation is performed by creating the graph as illustrated in FIG. 12. […]

The test system of test [3] is E coli (ATCC25922). Nature of the test: antimicrobial susceptibility testing by microscopic observation (binarized images). To be noted: ampicillin 2 μg/mL in culture fluid; 180 minutes from the start of culture (FIG. 5(b)). How it is done:
as §1, with “C. […]” for “C. Furthermore, culture is performed by performing incubation such that the temperature of each of the wells in the culture plate 18 reaches the set temperature.”, “system. […]” for “system. The microscopic observation may be performed for a set period of time from the start of the incubation till the end thereof by continuously monitoring the state of bacterial proliferation. In addition, the monitoring may be performed at the set time after setting appropriate time, and the monitoring result can be compared with the monitoring result when the incubation is started.”, “system. […]” for “system.”

Test [4] deals with E coli separated from a patient A. Put plainly: antimicrobial susceptibility testing by microscopic observation, areas of the bacteria. How it is done:
as §1
(§2) The processor determines whether the bacteria proliferate or the proliferation is interrupted under the corresponding culture condition, based on the microscopic image to which the above-described necessary treatments are performed. The determination whether or not the proliferation is performed, is performed by comparing with the information obtained based on the images at different times in the same container. More specifically, based on the image after the treatment illustrated in FIGS. 4 to 6, for example, the areas of the bacteria are calculated, and it is determined whether or not the proliferation is performed by creating the graph as illustrated in FIG. 12.
(§3) The processor combines the information on whether or not the proliferation is performed under the culture condition with a combination of a certain concentration of the antimicrobial agent, and determines the minimum concentration of the antimicrobial agent (MIC, minimum inhibitory concentration) which becomes interruption of proliferation. Here, the MIC determination is performed with respect to all of the wells provided on the culture plate 21. For example, there are 96 wells on the culture plate 21, and various types of antimicrobial agents having different concentrations (for example, 0 μg/mL, 0.5 μg/mL, 1 μg/mL, 2.0 μg/mL, 4.0 μg/mL, 8.0 μg/mL, 16.0 μg/mL, . . . ) enter the wells. Therefore, the minimum concentration (MIC) of the antimicrobial agent which becomes interruption of proliferation can be ascertained.
(§4) The processor further determines whether the bacteria of the examination target is sensitive (S), resistant (R), and intermediate (I) with respect to the corresponding antimicrobial agent by comparing with a break point (a break point of Clinical and Laboratory Standards Institute (CLSI), a break point of Japanese Society of Chemotherapy, or a break point of EUCAST) which is stored as reference data. […]

The subject of test [5] is E coli separated from a patient B. The test is described as above. The method, then: as §1, §2, §3, §4
The test system of test [6] is Staphylococcus aureus separated from the patient A. The test is described as above. The note with it: for antimicrobial susceptibility determination (comparison with the break points): FIG. 20(a).
Excerpt: as §1, with “In” for “In addition, when an examination is performed by using the bacteriological testing instrument 1, culture is performed by mixing a bacterial suspension prepared from a specimen with a culture fluid in the culture plate (for example, a culture plate which has 96 wells in total is used) 18. In”
as §2
as §3, with “wells.” for “wells. Therefore, the minimum concentration (MIC) of the antimicrobial agent which becomes interruption of proliferation can be ascertained.”

Test [7] relates to Staphylococcus aureus separated from the patient B. Described as above. To be noted: for antimicrobial susceptibility determination (comparison with the break points): FIG. 20(b).
Excerpt: as §1, with “In” for “In addition, when an examination is performed by using the bacteriological testing instrument 1, culture is performed by mixing a bacterial suspension prepared from a specimen with a culture fluid in the culture plate (for example, a culture plate which has 96 wells in total is used) 18. In”
as §2
as §3, with “wells.” for “wells. Therefore, the minimum concentration (MIC) of the antimicrobial agent which becomes interruption of proliferation can be ascertained.”

Consider `C[C@@H](O)[C@H]1C(=O)N2C(C(=O)O)=C(S[C@@H]3CN[C@H](C(=O)N(C)C)C3)[C@H](C)[C@H]12` [meropenem], for which, in test [1] (FIG. 22), the “concentration at which the circularity continues to decrease: bacteria elongated but not become extinct yet” value is 0.125 µg/mL and 0.25 µg/mL. The “concentration at which the decrease in circularity is stopped: bacteria become extinct (can be estimated as MBC)” value in test [1] (FIG. 22) was not below 0.5 µg/mL. In test [1] (meropenem 0.25 μg/mL, bacteria elongated (FIG. 22)), the “time from the start of culture after which the circularity starts to decrease” value was determined as 90 min. Further, the “time-dependent change of the circularity” value in test [1] (meropenem 0.5 μg/mL (FIG. 22)), in test [1] (meropenem 1.0 μg/mL (FIG. 22)) and in test [1] (meropenem 2.0 μg/mL (FIG. 22)) was “slightly decreases” throughout.

For `C[C@H]1COc2c(N3CCN(C)CC3)c(F)cc3c(=O)c(C(=O)O)cn1c23` [levofloxacin], the proliferation determination result is “G” in test [2] (levofloxacin 0.5 μg/mL, after 120 minutes (FIG. 13)); “I” in test [2] (levofloxacin 1.0 μg/mL, after 150 minutes (FIG. 13)); “I” in test [2] (levofloxacin 2.0 μg/mL, after 150 minutes (FIG. 13)).

As to `CC1(C)S[C@@H]2[C@H](NC(=O)[C@H](N)c3ccccc3)C(=O)N2[C@H]1C(=O)O` [ampicillin], the “state of the bacteria in the microscopic observation image” value in test [3] is recorded as “elongated”. The “sensitivity determination (comparison with the break points)” value in test [4] (FIG. 17(a)) is reported as “durability”. The “proliferation determination result (MIC determination result)” value in test [4] (all ampicillin conditions (FIG. 16(a))) is reported as “determined to proliferate”. Also, the “time-dependent change of the areas of the bacteria (standardized by the areas at start of culture)” value in test [4] (ampicillin 512 μg/mL, compared to no antimicrobial agent (FIG. 15(a))) is on record as “slightly increases”; in test [5] (ampicillin 4 μg/mL (FIG. 15(b))), “increase tends to be stopped”; in test [5] (ampicillin 8 μg/mL or greater (FIG. 15(b))), “area tends to decrease”. Also, in test [5] (after 180 minutes from the start of culture (FIG. 16(b))), the “concentration at which the proliferation is interrupted (MIC determination result)” value is not below 8 µg/mL. The “antimicrobial susceptibility determination (comparison with the break points)” value in test [6] is listed as “resistance”; in test [7] it was “Intermediate”.

For the compound `CN[C@H](CC(C)C)C(=O)N[C@H]1C(=O)N[C@@H](CC(N)=O)C(=O)N[C@H]2C(=O)N[C@H]3C(=O)N[C@H](C(=O)N[C@H](C(=O)O)c4cc(O)cc(O)c4-c4cc3ccc4O)[C@H](O)c3ccc(c(Cl)c3)Oc3cc2cc(c3O[C@@H]2O[C@H](CO)[C@@H](O)[C@H](O)[C@H]2O[C@H]2C[C@](C)(N)[C@H](O)[C@H](C)O2)Oc2ccc(cc2Cl)[C@H]1O` [vancomycin], the “antimicrobial susceptibility determination (comparison with the break points)” value in test [6] was “sensitivity”; in test [7], “Intermediate”. In addition, the “concentration at which the proliferation is performed” value in test [6] (images within 300 minutes from the start of culture (FIG. 18, FIG. 19(a))) is 0.25 µg/mL; in test [7] (images within 300 minutes from the start of culture (FIG. 18, FIG. 19(b))), not above 0.5 µg/mL.

Source of the values: patent US11851642B2, “Test device” (HITACHI HIGH-TECH CORPORATION, priority 2015, dated 2023).
